Reference: US20180021361A1, “COMBINATION DRUG TREATMENT FOR HEPATITIS C INFECTION” (JANSSEN PHARMACEUTICALS, INC., priority 2016, published 2018)
pIC50: −log10 of the molar value.

Key:
BSEP = BSEP (Homo sapiens, UniProt O95342); conditions: efflux transporter; cited from earlier work
BCRP = target: T1, BCRP (Homo sapiens, UniProt Q9UNQ0); conditions: efflux transporter; cited from earlier work
T1 sequence (Q9UNQ0 1-655): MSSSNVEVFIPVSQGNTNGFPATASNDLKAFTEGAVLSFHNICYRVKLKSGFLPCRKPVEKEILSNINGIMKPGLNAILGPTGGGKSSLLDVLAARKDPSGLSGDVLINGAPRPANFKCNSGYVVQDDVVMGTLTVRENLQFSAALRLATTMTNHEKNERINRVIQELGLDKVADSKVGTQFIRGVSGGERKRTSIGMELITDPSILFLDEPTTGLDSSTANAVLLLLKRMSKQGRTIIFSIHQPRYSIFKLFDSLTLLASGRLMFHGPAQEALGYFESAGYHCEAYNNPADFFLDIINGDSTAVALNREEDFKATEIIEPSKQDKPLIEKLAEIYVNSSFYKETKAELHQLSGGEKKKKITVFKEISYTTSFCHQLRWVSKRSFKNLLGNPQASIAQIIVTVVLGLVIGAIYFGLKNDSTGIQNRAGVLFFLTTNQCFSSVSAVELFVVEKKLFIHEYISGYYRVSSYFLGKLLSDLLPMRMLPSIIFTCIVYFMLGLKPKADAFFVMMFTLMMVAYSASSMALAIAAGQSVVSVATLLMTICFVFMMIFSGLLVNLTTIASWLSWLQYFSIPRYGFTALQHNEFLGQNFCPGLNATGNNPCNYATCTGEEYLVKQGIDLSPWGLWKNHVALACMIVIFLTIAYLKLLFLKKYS

MRP2/3 = MRP2/3 (Homo sapiens, UniProt O15438); conditions: efflux transporter; cited from earlier work
Sequence of MRP2/3 (O15438 whole entry): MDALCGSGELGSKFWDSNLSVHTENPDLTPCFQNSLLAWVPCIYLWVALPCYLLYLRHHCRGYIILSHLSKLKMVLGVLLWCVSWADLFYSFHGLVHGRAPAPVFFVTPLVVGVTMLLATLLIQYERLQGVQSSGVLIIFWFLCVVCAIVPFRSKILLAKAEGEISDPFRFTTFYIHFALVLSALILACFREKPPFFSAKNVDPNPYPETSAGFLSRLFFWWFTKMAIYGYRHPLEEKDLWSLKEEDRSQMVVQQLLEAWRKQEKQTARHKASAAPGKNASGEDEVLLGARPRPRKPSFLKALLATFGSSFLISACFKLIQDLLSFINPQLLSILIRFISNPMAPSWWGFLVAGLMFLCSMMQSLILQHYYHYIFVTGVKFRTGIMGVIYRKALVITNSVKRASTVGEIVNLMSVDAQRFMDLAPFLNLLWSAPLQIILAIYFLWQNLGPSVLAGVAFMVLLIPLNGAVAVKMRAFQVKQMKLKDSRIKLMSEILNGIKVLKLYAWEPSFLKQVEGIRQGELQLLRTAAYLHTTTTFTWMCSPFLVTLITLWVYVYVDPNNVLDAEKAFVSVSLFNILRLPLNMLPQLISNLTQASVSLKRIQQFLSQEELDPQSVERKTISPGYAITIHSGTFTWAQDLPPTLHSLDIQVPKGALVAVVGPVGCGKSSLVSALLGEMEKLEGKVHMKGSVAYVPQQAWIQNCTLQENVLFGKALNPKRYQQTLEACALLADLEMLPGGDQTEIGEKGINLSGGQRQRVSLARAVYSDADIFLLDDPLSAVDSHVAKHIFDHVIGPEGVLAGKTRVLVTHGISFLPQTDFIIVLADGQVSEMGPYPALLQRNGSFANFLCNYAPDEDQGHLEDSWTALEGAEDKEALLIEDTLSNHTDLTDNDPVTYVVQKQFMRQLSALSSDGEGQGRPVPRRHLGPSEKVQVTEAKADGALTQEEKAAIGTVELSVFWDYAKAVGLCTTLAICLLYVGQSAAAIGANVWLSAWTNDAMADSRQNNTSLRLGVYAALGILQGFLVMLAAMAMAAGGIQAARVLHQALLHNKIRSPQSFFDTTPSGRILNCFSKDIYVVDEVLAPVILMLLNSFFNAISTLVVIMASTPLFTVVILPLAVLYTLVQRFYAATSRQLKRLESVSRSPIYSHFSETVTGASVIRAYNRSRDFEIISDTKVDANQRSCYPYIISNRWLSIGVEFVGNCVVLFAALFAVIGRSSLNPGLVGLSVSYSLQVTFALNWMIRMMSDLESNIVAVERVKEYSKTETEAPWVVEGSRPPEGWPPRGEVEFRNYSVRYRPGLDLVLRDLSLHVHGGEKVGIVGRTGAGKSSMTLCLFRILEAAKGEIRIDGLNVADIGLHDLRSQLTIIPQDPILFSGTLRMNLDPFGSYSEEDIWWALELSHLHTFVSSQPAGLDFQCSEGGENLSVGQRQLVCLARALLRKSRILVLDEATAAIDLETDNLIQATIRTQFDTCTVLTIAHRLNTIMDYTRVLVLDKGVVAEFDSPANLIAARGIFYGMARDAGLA

[1] = Phase 2a open-label combination study, pharmacokinetics; format: in vivo, human
Protocol: A randomized, Phase 2a, open-label study was carried out to evaluate the safety, pharmacokinetics and efficacy of the combination of Compound (III), Odalasvir and Simeprevir in Genotype 1 treatment-naïve subjects with chronic hepatitis C. Other treatment-naïve subjects included Genotype 2, 3, 4, 5 and 6. The aim of the study was to determine the efficacy, pharmacokinetics (PK), and safety of Compound (III)+Odalasvir±SMV in HCV-infected subjects. […] Efficacy, PK and safety evaluations were conducted during and through 24 weeks post dosing. Up to 15 cohorts were enrolled; data was generated from cohorts that have completed dosing.

MRP2 = MRP2 (Homo sapiens, UniProt Q92887); conditions: efflux transporter; cited from earlier work
Sequence of MRP2 (Q92887 whole entry): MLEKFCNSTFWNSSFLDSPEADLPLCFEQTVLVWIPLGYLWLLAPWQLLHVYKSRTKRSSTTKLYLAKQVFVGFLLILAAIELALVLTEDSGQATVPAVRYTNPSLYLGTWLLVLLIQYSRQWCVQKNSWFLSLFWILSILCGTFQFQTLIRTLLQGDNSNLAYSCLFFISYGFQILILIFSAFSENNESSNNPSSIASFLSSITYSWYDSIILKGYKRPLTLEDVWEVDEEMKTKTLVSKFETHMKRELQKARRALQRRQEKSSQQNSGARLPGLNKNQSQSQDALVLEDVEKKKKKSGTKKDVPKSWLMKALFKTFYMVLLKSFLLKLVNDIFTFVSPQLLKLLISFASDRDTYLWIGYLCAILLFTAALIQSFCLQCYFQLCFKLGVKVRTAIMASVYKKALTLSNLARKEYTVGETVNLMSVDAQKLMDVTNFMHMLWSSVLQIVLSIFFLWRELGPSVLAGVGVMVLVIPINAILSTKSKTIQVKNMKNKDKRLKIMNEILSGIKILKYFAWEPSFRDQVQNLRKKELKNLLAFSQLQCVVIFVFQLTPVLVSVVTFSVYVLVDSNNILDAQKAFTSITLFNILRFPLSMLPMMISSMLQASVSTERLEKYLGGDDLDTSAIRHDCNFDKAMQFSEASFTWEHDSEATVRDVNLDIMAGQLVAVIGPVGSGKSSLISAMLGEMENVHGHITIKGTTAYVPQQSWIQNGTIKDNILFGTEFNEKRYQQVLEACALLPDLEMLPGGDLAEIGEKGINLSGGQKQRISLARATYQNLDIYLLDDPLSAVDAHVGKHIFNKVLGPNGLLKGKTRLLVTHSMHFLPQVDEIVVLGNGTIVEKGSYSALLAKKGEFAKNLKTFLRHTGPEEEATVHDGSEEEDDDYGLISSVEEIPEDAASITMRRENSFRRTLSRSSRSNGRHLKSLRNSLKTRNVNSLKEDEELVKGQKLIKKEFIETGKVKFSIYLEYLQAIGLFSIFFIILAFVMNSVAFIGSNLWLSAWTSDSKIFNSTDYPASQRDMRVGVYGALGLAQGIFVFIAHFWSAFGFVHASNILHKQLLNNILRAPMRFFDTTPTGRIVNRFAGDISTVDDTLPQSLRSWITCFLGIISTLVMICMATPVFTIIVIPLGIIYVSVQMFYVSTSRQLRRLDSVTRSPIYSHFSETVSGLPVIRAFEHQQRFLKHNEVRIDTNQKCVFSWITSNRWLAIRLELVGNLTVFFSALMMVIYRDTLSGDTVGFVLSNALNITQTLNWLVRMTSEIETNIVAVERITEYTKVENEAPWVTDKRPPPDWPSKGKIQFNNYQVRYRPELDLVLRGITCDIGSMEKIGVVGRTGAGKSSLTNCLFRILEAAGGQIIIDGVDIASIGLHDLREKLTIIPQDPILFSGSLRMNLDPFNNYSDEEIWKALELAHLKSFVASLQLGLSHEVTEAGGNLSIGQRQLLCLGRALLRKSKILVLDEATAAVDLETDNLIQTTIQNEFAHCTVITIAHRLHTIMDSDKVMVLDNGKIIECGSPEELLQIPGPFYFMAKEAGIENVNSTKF

CYP = CYP inhibition
[2] = PK of single agents versus fixed dose combinations, single dose in healthy volunteers; format: in vivo, human; conditions: for t1/2term: mean ± SD
Protocol: SMV (100 mg), ODV (50 mg), and Compound (III) (800 mg) were administered as three different formulations or together as single doses in vivo to healthy volunteers. The arms of the study included: • Arm 1 (Reference Arm): Single oral doses of single agents, one SMV 100-mg capsule, one ODV 50-mg tablet as granule layered solid dispersion with copovidone and poloxamers, and two Compound (III) 400-mg tablets, administered together. • Arm 2: Single oral dose of fixed dose combination (FDC02): SMV 100 mg+ODV 50 mg as a spray dried solid dispersion with HPMC-AS L in a ratio ODV/HPMC-AS L 1/1 w/w+Compound (III) 800 mg • Arm 3: Single oral dose of fixed dose combination (FDC04): SMV 100 mg+ODV 50 mg as a spray dried solid dispersion with HPMC-AS L in a ratio ODV/HPMC-AS L 1/3 w/w+Compound (III) 800 mg • Arm 4: Single oral dose of fixed dose combination (FDC01): SMV 100 mg+ODV 50 mg as a spray dried solid dispersion with copovidone and poloxamers+Compound (III) 800 mg
PK parameters, including Cmax, tmax, AUClast, and AUC∞ were measured for Compound (III), ODV, SMV, and metabolites Compound A-I and Compound A-3 for each Arm of the study. Arms that included fixed dose combinations (FDC) (Arm 2, Arm 3, and Arm 4) were then compared to a single oral dose (Arm 1, the reference Arm). Table 9, Table 10, Table 11, Table 12 and Table 13 display relevant PK parameters and FIG. 9, FIG. 10, FIG. 11, FIG. 12, and FIG. 13 depict the plasma concentration over time of SMV, ODV, Compound A-1, and Compound A-3 for each Arm of the study.

Sequence of BSEP (O95342 whole entry): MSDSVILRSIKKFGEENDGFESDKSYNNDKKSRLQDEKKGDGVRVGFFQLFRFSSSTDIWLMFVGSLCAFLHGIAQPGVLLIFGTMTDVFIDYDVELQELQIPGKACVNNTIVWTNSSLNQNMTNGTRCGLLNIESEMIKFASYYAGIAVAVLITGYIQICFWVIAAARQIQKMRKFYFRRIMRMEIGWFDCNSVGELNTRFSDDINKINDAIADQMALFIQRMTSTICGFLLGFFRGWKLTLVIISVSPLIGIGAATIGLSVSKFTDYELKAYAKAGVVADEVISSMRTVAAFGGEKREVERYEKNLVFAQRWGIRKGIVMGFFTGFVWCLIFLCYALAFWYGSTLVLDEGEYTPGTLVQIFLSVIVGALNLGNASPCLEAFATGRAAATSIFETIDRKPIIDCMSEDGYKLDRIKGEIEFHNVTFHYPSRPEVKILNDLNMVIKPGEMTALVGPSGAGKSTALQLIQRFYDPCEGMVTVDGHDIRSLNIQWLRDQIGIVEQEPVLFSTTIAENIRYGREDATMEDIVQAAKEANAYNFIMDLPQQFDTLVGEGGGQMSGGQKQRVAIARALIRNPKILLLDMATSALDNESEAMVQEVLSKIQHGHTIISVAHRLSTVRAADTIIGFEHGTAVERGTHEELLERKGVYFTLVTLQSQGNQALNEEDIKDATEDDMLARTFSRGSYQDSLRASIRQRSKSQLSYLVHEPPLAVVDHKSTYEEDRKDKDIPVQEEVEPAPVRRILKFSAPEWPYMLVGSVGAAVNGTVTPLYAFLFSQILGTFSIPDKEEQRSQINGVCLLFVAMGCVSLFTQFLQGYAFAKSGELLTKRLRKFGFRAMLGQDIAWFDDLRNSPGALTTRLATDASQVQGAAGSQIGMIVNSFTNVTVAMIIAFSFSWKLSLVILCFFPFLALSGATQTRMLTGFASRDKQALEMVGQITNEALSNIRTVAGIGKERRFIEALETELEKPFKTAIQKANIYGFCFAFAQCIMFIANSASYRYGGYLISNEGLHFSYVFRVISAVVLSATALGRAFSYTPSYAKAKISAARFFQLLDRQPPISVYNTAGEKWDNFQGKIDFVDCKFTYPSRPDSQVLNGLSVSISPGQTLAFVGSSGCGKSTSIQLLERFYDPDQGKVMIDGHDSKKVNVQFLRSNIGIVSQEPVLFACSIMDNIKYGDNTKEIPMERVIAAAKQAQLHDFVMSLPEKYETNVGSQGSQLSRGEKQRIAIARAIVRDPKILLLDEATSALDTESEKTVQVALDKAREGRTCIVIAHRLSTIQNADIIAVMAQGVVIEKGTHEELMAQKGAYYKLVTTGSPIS

Row | SMILES | in vitro inhibition of BSEP (BSEP) | in vitro inhibition of BCRP (BCRP) | in vitro inhibition of MRP3 (MRP2/3) | decrease of exposure on reducing Odalasvir dosing from once a day to every other day ([1]; 50 mg) | observed exposure in Cohort 1 / group (i) versus anticipated ([1]; Compound (III) 400 mg, ODV 50 mg QD, SMV 100 mg QD) | in vitro inhibition of MRP2 (MRP2) | pIC50 (CYP) | t1/2term ([2]; Arm 1 (reference): single agents, single oral dose) | t1/2term ([2]; Arm 2: FDC02, single oral dose) | t1/2term ([2]; Arm 3: FDC04, single oral dose) | t1/2term ([2]; Arm 4: FDC01, single oral dose) | Tmax ([2]; human, in vivo, Arm 1 (reference): single agents, single oral dose, median [range])
1 | COC(=O)N[C@H](C(=O)N1[C@H](c2nc3cc(-c4cc5ccc4CCc4ccc(c(-c6ccc7[nH]c([C@@H]8C[C@@H]9CCCC[C@@H]9N8C(=O)[C@@H](NC(=O)OC)C(C)C)nc7c6)c4)CC5)ccc3[nH]2)C[C@@H]2CCCC[C@@H]21)C(C)C [ODV, methyl [(2S)-1-[(2S,3aS,7aS)-2-[6-[11-[2-[(2S,3aS,7aS)-1-[(2S)-2-[(methoxycarbonyl)amino]-3-methylbutanoyl]octahydro-1H-indol-2-yl]-1H-benzimidazol-6-yl]tricyclo[8.2.2.2^4,7]hexadeca-1(12),4,6,10,13,15-hexaen-5-yl]-1H-benzimidazol-2-yl]octahydro-1H-indol-1-yl]-3-methyl-1-oxobutan-2-yl]carbamate] | no inhibition | no inhibition | no inhibition | proportionally | higher than anticipated | no inhibition | – | – | – | – | – | –
2 | CC(C)OC(=O)C(C)N[P@](=O)(OC[C@@]1(F)O[C@@H](n2ccc(=O)[nH]c2=O)[C@](C)(O)[C@@H]1O)Oc1ccccc1 (stereo in doubt) [Compound (III)] | – | no in vitro inhibition | – | – | – | – | < 4.59 | 36 ± 6 min | 42 ± 12 min | 42 ± 6 min | 36 ± 6 min | 120 min
